Results taken from ChEMBL document CHEMBL1140673, “Agonist lead identification for the high affinity niacin receptor GPR109a” (Bioorg Med Chem Lett, 2007).
Activity calls are given as the source filed them. No cut-off for these calls is given here.

Biological target: Hydroxycarboxylic acid receptor 3 (Homo sapiens) (UniProt P49019)
Experiment: Agonist activity at human cloned GPR109b receptor at 100 uM by forskolin-stimulated cAMP production test
Assay type: functional

Hydroxycarboxylic acid receptor 3 (Homo sapiens), sequence (P49019 whole entry): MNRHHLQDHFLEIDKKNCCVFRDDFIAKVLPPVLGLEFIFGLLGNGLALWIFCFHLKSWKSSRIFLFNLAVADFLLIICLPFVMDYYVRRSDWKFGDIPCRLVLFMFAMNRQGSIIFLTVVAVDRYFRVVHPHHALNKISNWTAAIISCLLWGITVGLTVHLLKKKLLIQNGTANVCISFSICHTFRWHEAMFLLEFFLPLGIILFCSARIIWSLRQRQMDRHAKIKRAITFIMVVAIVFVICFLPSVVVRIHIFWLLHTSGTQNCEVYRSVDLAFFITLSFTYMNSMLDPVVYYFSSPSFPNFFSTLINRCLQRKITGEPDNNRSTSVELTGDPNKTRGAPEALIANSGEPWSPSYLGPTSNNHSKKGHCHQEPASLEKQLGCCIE

Activity: inactive
Structure (SMILES): Cc1cc(C(=O)O)n[nH]1
